Measurements as given in US20230151025A1, “SUBSTITUTED THIAZOLOPYRIDINES, SALTS THEREOF AND THEIR USE AS HERBICIDALLY ACTIVE SUBSTANCES” (Bayer Aktiengesellschaft, priority 2020, published 2023).

How the values were obtained:
Assay type in all cases: in vivo
[1] = system: Digitaria sanguinalis (DIGSA); test: Herbicidal pre-emergence action (A), 1280 g/ha; settings: visual grading after ca. 3 weeks vs untreated controls, 100% = plants have died off, 0% = as control plants
Procedure, shortened: (§1)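 Visual grading of plant damage in percent (0% as untreated control, 100% dead) was done about 3 weeks after treatment. Compounds, as WP or EC in water with 0.5% additive, had been sprayed at 600 l/ha onto the covering soil of freshly sown sandy loam pots.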

[2] = system: Poa annua (POAAN); test: Herbicidal pre-emergence action (A), 1280 g/ha; settings: visual grading after ca. 3 weeks vs untreated controls, 100% = plants have died off, 0% = as control plants
Procedure, shortened: as §1

[3] = system: Stellaria media (STEME); test: Herbicidal pre-emergence action (A), 1280 g/ha; settings: visual grading after ca. 3 weeks vs untreated controls
Procedure, shortened: as §1

[4] = system: Lolium rigidum (LOLRI); test: Herbicidal pre-emergence action (A), 1280 g/ha; settings: visual grading after ca. 3 weeks vs untreated controls, 100% = plants have died off, 0% = as control plants
Procedure, shortened: as §1

[5] = system: Echinochloa crus-galli (ECHCG); test: Herbicidal pre-emergence action (A), 1280 g/ha; settings: visual grading after ca. 3 weeks vs untreated controls, 100% = plants have died off, 0% = as control plants
Procedure, shortened: as §1

[6] = system: Matricaria inodora (MATIN); test: Herbicidal pre-emergence action (A), 1280 g/ha; settings: visual grading after ca. 3 weeks vs untreated controls
Procedure, shortened: as §1

[7] = system: Amaranthus retroflexus (AMARE); test: Herbicidal pre-emergence action (A), 1280 g/ha; settings: visual grading after ca. 3 weeks vs untreated controls
Procedure, shortened: as §1

[8] = system: Setaria viridis (SETVI); test: Herbicidal pre-emergence action (A), 1280 g/ha; settings: visual grading after ca. 3 weeks vs untreated controls
Procedure, shortened: as §1

[9] = system: Veronica persica (VERPE); test: Herbicidal pre-emergence action (A), 1280 g/ha; settings: visual grading after ca. 3 weeks vs untreated controls
Procedure, shortened: as §1

[10] = system: Alopecurus myosuroides (ALOMY); test: Herbicidal pre-emergence action (A), 1280 g/ha; settings: visual grading after ca. 3 weeks vs untreated controls, 100% = plants have died off, 0% = as control plants
Procedure, shortened: as §1

[11] = system: Kochia scoparia (KCHSC; Bassia scoparia); test: Herbicidal pre-emergence action (A), 1280 g/ha; settings: visual grading after ca. 3 weeks vs untreated controls
Procedure, shortened: as §1

[12] = system: Setaria viridis (SETVI); test: Herbicidal pre-emergence action (C), 320 g/ha; settings: ca. 3 weeks
Excerpt: (§2) ABUTH: Abutilon theophrasti AGSTE: Agrostis tenuis ALOMY: Alopecurus myosuroides AMARE Amaranthus retroflexus DIGSA: Digitaria sanguinalis ECHCG: Echinochloa crus-galli KCHSC: Kochia scoparia LOLRI: Lolium rigidum MATIN: Matricaria inodora POAAN: Poa annua POLCO: Polygonum convolvulus SETVI: Setaria viridis STEME: Stellaria media VERPE: Veronica persica VIOTR: Viola tricolor
Seeds of mono- and dicotyledonous weed plants and crop plants were sown, in plastic or organic planting pots, in sandy loam and covered with soil. The compounds according to the invention, formulated in the form of wettable powders (WP) or as emulsifiable concentrates (EC), were applied to the surface of the covering soil as aqueous suspension or emulsion, with the addition of 0.5% of an additive, at an application rate of 600 l of water/ha (converted).
Following treatment, the pots were placed in a greenhouse and kept under optimum growth conditions for the test plants. The visual grading of the damage to the test plants was carried out after ca. 3 weeks in comparison to untreated controls (herbicidal effect in percent (%): 100% effect=plants have died off, 0% effect=as control plants).
Tables C1 to C13 below show the effects of selected compounds of the general formula (I) according to table 1 on various harmful plants and an application rate corresponding to 320 g/ha obtained by the experimental procedure mentioned above.

[13] = system: Digitaria sanguinalis (DIGSA); test: Herbicidal post-emergence action (B), 1280 g/ha; settings: rated visually after about 3 weeks vs untreated controls
Procedure, shortened: (§3)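 Greenhouse-grown weeds at the one-leaf stage received a foliar spray of the formulated compound (WP or EC, 0.5% additive, 600 L/ha). Damage was scored visually after about 3 weeks on a 0–100% scale against untreated plants.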

[14] = system: Stellaria media (STEME); test: Herbicidal post-emergence action (B), 1280 g/ha
Procedure, shortened: as §3

[15] = system: Echinochloa crus-galli (ECHCG); test: Herbicidal post-emergence action (B), 1280 g/ha; settings: rated visually after about 3 weeks vs untreated controls
Procedure, shortened: as §3

[16] = system: Amaranthus retroflexus (AMARE); test: Herbicidal post-emergence action (B), 1280 g/ha; settings: rated visually after about 3 weeks vs untreated controls
Procedure, shortened: as §3

[17] = system: Veronica persica (VERPE); test: Herbicidal post-emergence action (B), 1280 g/ha
Procedure, shortened: as §3

[18] = system: Alopecurus myosuroides (ALOMY); test: Herbicidal post-emergence action (B), 1280 g/ha; settings: rated visually after about 3 weeks vs untreated controls
Procedure, shortened: as §3

[19] = system: Kochia scoparia (KCHSC; Bassia scoparia); test: Herbicidal post-emergence action (B), 1280 g/ha
Procedure, shortened: as §3

[20] = system: Poa annua (POAAN); test: Herbicidal post-emergence action (B), 1280 g/ha; settings: rated visually after about 3 weeks vs untreated controls
Procedure, shortened: as §3

[21] = system: Matricaria inodora (MATIN); test: Herbicidal post-emergence action (B), 1280 g/ha; settings: rated visually after about 3 weeks vs untreated controls
Procedure, shortened: as §3

[22] = system: Abutilon theophrasti (ABUTH); test: Herbicidal post-emergence action (B), 1280 g/ha; settings: rated visually after about 3 weeks vs untreated controls
Procedure, shortened: as §3

[23] = system: Veronica persica (VERPE); test: Herbicidal post-emergence action (D), 320 g/ha; settings: ca. 3 weeks
Excerpt: as §2
Seeds of mono- and dicotyledonous weed plants and crop plants were sown, in plastic or organic planting pots, in sandy loam, covered with soil and grown in a greenhouse under controlled growth conditions. 2 to 3 weeks after sowing, the test plants were sprayed in the single-leaf stage. The compounds according to the invention, formulated in form of wettable powders (WP) or as emulsifiable concentrates (EC), were sprayed onto the green plant parts as aqueous suspension or emulsion, with the addition of 0.5% of an additive, at an application rate of 600 l of water/ha (converted). The test plants were placed in the greenhouse for ca. 3 weeks under optimum growth conditions, and then the effect of the preparations was assessed visually in comparison with untreated controls (herbicidal effect in percent (%): 100% effect=plants have died off, 0% effect=as control plants).
Tables D1 to D13 below show the effects of selected compounds of the general formula (I) according to table 1 on various harmful plants and an application rate corresponding to 320 g/ha obtained by the experimental procedure mentioned above.

Structure (SMILES)	DIGSA, herbicidal effect in percent (%) [1] [%]	POAAN, herbicidal effect in percent (%) [2] [%]	herbicidal effect STEME [3] [%]	LOLRI, herbicidal effect in percent (%) [4] [%]	ECHCG, herbicidal effect in percent (%) [5] [%]	herbicidal effect MATIN [6] [%]	herbicidal effect AMARE [7] [%]	herbicidal effect SETVI [8] [%]	herbicidal effect VERPE [9] [%]	ALOMY, herbicidal effect in percent (%) [10] [%]	herbicidal effect KCHSC [11] [%]	herbicidal activity DIGSA [13] [%]	herbicidal effect STEME [14] [%]	herbicidal activity AMARE [16] [%]	herbicidal effect VERPE [17] [%]	herbicidal effect KCHSC [19] [%]	herbicidal activity POAAN [20] [%]	herbicidal activity MATIN [21] [%]	also measured
CCc1cc2scnc2nc1C1=CCCCC1 [Example I-145]	100	100	90	100	100	90	100	100	100	100	90	100	100	100	100	90	–	–	herbicidal effect SETVI [12]: 90%; herbicidal activity ECHCG [15]: 100%; herbicidal activity ALOMY [18]: 100%
CCc1cc2scnc2nc1-c1ccccc1C(F)(F)F [Example I-049]	90	100	100	100	100	90	90	100	100	100	100	90	90	100	90	100	100	–	–
Cc1cc2sc(S(C)(=O)=O)nc2nc1-c1ccccc1F [Example I-021]	–	100	100	100	–	–	100	100	90	–	90	–	–	90	–	100	100	100	–
CCc1cc2sc(S)nc2nc1-c1ccccc1F [Example I-165]	–	100	90	–	–	–	90	100	90	90	–	100	–	–	90	90	–	–	–
Cc1cc2sc([S+](C)[O-])nc2nc1-c1ccccc1 (centres unmarked) [Example I-092]	–	90	90	–	–	–	90	–	90	–	–	100	–	100	90	100	–	–	herbicidal activity ABUTH [22]: 90%
Cc1cc2sc(S)nc2nc1-c1cccc(F)c1 [Example I-159, 5-(3-fluorophenyl)-6-methyl-thiazolo[4,5-b]pyridine-2-thiol]	–	–	–	–	–	–	–	90	–	–	–	100	–	–	–	90	–	–	herbicidal activity ABUTH [22]: 90%
Fc1ccc(-c2ccc3scnc3n2)cc1 [Example I-074, 5-(4-fluorophenyl)thiazolo[4,5-b]pyridine]	100	100	–	–	100	–	90	100	–	–	–	100	90	90	–	90	–	–	–
CCc1cc2scnc2nc1-c1ccccc1OC [Example I-111]	100	100	100	100	100	90	90	100	90	90	100	100	90	100	90	100	100	–	herbicidal effect VERPE [23]: 80%
CCc1cc2sc(S)nc2nc1-c1ccccc1C [Example I-158]	–	–	90	–	100	–	90	–	–	–	–	–	–	90	90	–	100	100	–
CCc1cc2sc([S+](C)[O-])nc2nc1-c1ccccc1C (centres unmarked) [Example I-022]	–	–	90	–	–	–	–	–	–	–	–	–	–	100	–	90	–	90	–
